The values that follow come from article PMC4278837, “A Cyclic Peptidic Serine Protease Inhibitor: Increasing Affinity by Increasing Peptide Flexibility” (PLoS ONE, 2014).

Where two headings read alike, the source gives them in different places. Bridge positions count the residues as written; N and C are the ends. Peptide text beside a SMILES is read from it.

Assay [1] has as its target T1, huPA-H99Y (Homo sapiens, UniProt P00749, H272Y).
T1 construct: To ensure that the uPAs purified from the conditioned media were completely in the two-chain form, they were treated with plasmin; hexa-His (C); made in house; host or cells: HEK293 6E suspension cells
Description: Ki for inhibition of huPA-H99Y, chromogenic substrate S-2444. The class given is biochemical. From the text:
(§1) Determination of Ki values
(§2) The initial reaction velocities were monitored at an absorbance of 405 nm. The inhibition constants (K i) were subsequently determined from the non-linear regression analyses of plots for V i/V o versus [I]0, using Equation 2, derived under assumption of competitive inhibition:
(§3) [drawing 2] (2) where V i and V 0 are the reaction velocities in the presence and absence of inhibitor, respectively; [S]0 and [I]0 are the substrate and inhibitor concentrations, respectively; K M is K M for substrate hydrolysis by each protease. In Equation 2, it is assumed that [S]free ≈ [S]0 and [I]free ≈ [I]0.

For the next assay, the target named is T2, huPA-H99Y R35A (Homo sapiens, UniProt P00749, H272Y/R198A).
T2 construct: To ensure that the uPAs purified from the conditioned media were completely in the two-chain form, they were treated with plasmin; hexa-His (C); made in house; host or cells: HEK293 6E suspension cells
Description: Ki for inhibition of huPA-H99Y-R35A, chromogenic substrate. Format: biochemical. As to conditions: 37°C; means ± S.D.; read-out: K i for inhibition of huPA-H99Y-R35A.
Source text: as §1, §2, §3

The next assay concerns the target T3, huPA-H99Y V41A (Homo sapiens, UniProt P00749, H272Y/V208A).
T3 construct: To ensure that the uPAs purified from the conditioned media were completely in the two-chain form, they were treated with plasmin; hexa-His (C); made in house; host or cells: HEK293 6E suspension cells
The assay can be described thus: Ki for inhibition of huPA-H99Y-V41A, chromogenic substrate. The class given is biochemical. As to conditions: 37°C; means ± S.D.; read-out: K i for inhibition of huPA-H99Y-V41A.
Source text: as §1, §2, §3

The next assay deals with T4, huPA-H99Y K143A (Homo sapiens, UniProt P00749, H272Y/K320A).
T4 construct: To ensure that the uPAs purified from the conditioned media were completely in the two-chain form, they were treated with plasmin; hexa-His (C); made in house; host or cells: HEK293 6E suspension cells
The assay can be described thus: Ki for inhibition of huPA-H99Y-K143A, chromogenic substrate. Format: biochemical. As to conditions: 37°C; means ± S.D.; read-out: K i for inhibition of huPA-H99Y-K143A.
Source text: as §1, §2, §3

A further assay deals with T5, muPA K41A (Mus musculus, UniProt P06869, K210A).
T5 construct: To ensure that the uPAs purified from the conditioned media were completely in the two-chain form, they were treated with plasmin; hexa-His (C); made in house; host or cells: HEK293 6E suspension cells
Description: Ki for inhibition of muPA-K41A, chromogenic substrate. Format: biochemical, murine. As to conditions: means ± S.D.; read-out: K i for inhibition of muPA-K41A.
Source text: as §1, §2, §3

In a further assay the target is T6, muPA Y99A (Mus musculus, UniProt P06869, Y274A).
T6 construct: To ensure that the uPAs purified from the conditioned media were completely in the two-chain form, they were treated with plasmin; hexa-His (C); made in house; host or cells: HEK293 6E suspension cells
Description: Ki for inhibition of muPA-Y99A, chromogenic substrate. Format: biochemical, murine. The following applies: means ± S.D.; read-out: K i for inhibition of muPA-Y99A.
Source text: as §1, §2, §3

Another assay deals with T7, muPA K143A (Mus musculus, UniProt P06869, K322A).
T7 construct: To ensure that the uPAs purified from the conditioned media were completely in the two-chain form, they were treated with plasmin; hexa-His (C); made in house; host or cells: HEK293 6E suspension cells
Description: Ki for inhibition of muPA-K143A, chromogenic substrate. The class given is biochemical, murine. The following applies: means ± S.D.; read-out: K i for inhibition of muPA-K143A.
Source text: as §1, §2, §3

For the next assay, the target named is T8, muPA S190A (Mus musculus, UniProt P06869, S373A).
T8 construct: To ensure that the uPAs purified from the conditioned media were completely in the two-chain form, they were treated with plasmin; hexa-His (C); made in house; host or cells: HEK293 6E suspension cells
Description: Ki for inhibition of muPA-S190A, chromogenic substrate. The class given is biochemical, murine. As to conditions: means ± S.D.; read-out: K i for inhibition of muPA-S190A.
Source text: as §1, §2, §3

Another assay deals with T9, muPA V213T (Mus musculus, UniProt P06869, V396T).
T9 construct: To ensure that the uPAs purified from the conditioned media were completely in the two-chain form, they were treated with plasmin; hexa-His (C); made in house; host or cells: HEK293 6E suspension cells
Description: Ki for inhibition of muPA-V213T, chromogenic substrate. The class given is biochemical, murine. As to conditions: means ± S.D.; read-out: K i for inhibition of muPA-V213T.
Source text: as §1, §2, §3

For assay [2], the target named is T1, huPA-H99Y. The assay can be described thus: Surface plasmon resonance analysis of peptide binding to huPA-H99Y. The following applies: SPR, 25°C, pH 7.4. As to the method:
(§4) Surface plasmon resonance (SPR) analysis
(§5) To determine the equilibrium binding constants (KD), the association rate constants (kon) and dissociation rate constants (koff) for peptide binding to uPA, surface plasmon resonance analysis was performed on a Biacore T200 instrument (Biacore, Uppsala, Sweden). A CM5 chip was coupled with the uPA variant (muPA or huPAH99Y) to be analysed, by injecting a concentration of 30 µg/mL uPA in immobilization buffer (10 mM sodium acetate, pH 5.0), aiming for an immobilised level of approximately 500 response units (RU). Immobilisation was followed by surface blocking with ethanolamine. A reference cell was prepared in the same way, without coupling of uPA. Mupain-1 variants in HBS with 0.1% BSA, in a dilution series, were injected at a flow rate of 30 µL per min during 60 s at 25°C. Subsequently, the dissociation was monitored during 600 s. Kinetic constants (k on and k off) were calculated with the Biacore Evaluation Software, using the 1∶1 kinetic fit. The K D values were calculated as k off /k on.

The target in a further assay is T10, muPA (Mus musculus, UniProt P06869).
T10 construct: To ensure that the uPAs purified from the conditioned media were completely in the two-chain form, they were treated with plasmin; hexa-His (C); made in house; host or cells: HEK293 6E suspension cells
Description: Surface plasmon resonance analysis of peptide binding to muPA. Details: species or system murine. As to conditions: SPR, 25°C, pH 7.4. The procedure:
as §4, §5
A general note: Surface plasmon resonance follows binding to a sensor surface in real time, without labels.

The target in assay [3] is T11, huPA-H99Y (Homo sapiens, UniProt P00749, C299A/H272Y/N322Q).
T11 construct: recombinant uPA catalytic domain (residues 159–411), harbouring a H99Y mutation; made in house; host or cells: Pichia pastoris X-33 (secreted)
Description: Isothermal titration calorimetry for binding to huPA-H99Y catalytic domain. As to conditions: ITC, 25°C, pH 7.4. The procedure: For these experiments, we used the catalytic domain of huPA-H99Y expressed in and purified from Pichia pastoris strain X-33 (see above). The protein was dissolved in and dialysed against a buffer of 20 mM sodium phosphate, pH 7.4, 140 mM NaCl. The protein concentration was determined by absorbance at 280 nm, using an extinction coefficient of 43810 M^−1cm^−1. The peptides were dissolved in the above-mentioned buffer. All isothermal titration calorimetry experiments were performed with a MicroCal^TM ITC200 instrument equilibrated to a temperature of 25°C (298oK). The concentration of uPA-H99Y catalytic domain used in the 200 µl sample cell was 5–50 µM, depending on the affinity of the ligand. Titrations were performed by injecting 2 µl of the ligand until the total syringe volume of 40 µl was spent. Titration of ligand into buffer was performed to obtain buffer correction. The equilibrium association constant KA and the reaction enthalpy ΔH were calculated by fitting the integrated titration peaks using a one-binding-site model in the ITC ORIGIN7 programme package. The following formulas for Gibbs free energy ΔG were used to analyse the measured energies
[drawing 4] (4) where R is the gas constant and T the absolute temperature. ΔS, the entropic change during the reaction, was calculated using equations 3 and 4 and the measured K A and ΔH values.
(In general: Isothermal titration calorimetry measures the heat released or taken up as one component is titrated into another.)

The target of a further assay is T12, muPA wt (Mus musculus, UniProt P06869).
T12 construct: To ensure that the uPAs purified from the conditioned media were completely in the two-chain form, they were treated with plasmin; hexa-His (C); made in house; host or cells: HEK293 6E suspension cells
As to conditions: means ± S.D.; starred values reproduced from previous publications; ref Andersen et al., 2008; Hosseini et al., 2011; read-out: K i for inhibition of muPA wt; cited from earlier work.

The next assay has as its target huPA-H99Y Q192A (Homo sapiens, UniProt P00749, H272Y/Q373A). Description: Ki for inhibition of huPA-H99Y-Q192A, chromogenic substrate. Format: biochemical. Further details: To ensure that the uPAs purified from the conditioned media were completely in the two-chain form, they were treated with plasmin; hexa-His (C); made in house; host or cells: HEK293 6E suspension cells. The following applies: 37°C; means ± S.D.; read-out: K i for inhibition of huPA-H99Y-Q192A.
Source text: as §1, §2, §3

Where [4] appears, read: 37°C, means ± S.D., read-out: K i for inhibition of huPA-H99Y.

T10 sequence (P06869 180-433 limits assumed): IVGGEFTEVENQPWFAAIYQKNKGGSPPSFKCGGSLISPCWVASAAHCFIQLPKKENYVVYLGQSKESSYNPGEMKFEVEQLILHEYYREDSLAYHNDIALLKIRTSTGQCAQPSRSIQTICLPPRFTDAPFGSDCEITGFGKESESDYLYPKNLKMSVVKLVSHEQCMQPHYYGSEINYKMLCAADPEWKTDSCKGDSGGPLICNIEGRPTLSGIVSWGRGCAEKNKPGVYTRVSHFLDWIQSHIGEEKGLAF
T10 sequence (P06869 21-178 partner limits assumed): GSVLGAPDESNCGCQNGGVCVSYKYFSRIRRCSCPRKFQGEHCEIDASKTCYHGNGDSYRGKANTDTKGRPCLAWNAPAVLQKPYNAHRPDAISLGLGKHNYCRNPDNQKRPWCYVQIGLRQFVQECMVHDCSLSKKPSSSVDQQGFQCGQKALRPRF
T9 sequence (P06869 180-433 V396T): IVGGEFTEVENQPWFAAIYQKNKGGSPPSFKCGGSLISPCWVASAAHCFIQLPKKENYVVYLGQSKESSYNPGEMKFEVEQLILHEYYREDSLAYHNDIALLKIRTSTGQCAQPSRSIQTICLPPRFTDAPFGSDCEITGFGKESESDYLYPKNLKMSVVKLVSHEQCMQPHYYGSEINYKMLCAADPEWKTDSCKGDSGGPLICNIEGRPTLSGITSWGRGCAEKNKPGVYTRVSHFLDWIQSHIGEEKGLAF
T9 sequence (P06869 21-178 partner limits assumed): as the sequence (P06869 21-178 partner limits assumed) above
T7 sequence (P06869 180-433 K322A): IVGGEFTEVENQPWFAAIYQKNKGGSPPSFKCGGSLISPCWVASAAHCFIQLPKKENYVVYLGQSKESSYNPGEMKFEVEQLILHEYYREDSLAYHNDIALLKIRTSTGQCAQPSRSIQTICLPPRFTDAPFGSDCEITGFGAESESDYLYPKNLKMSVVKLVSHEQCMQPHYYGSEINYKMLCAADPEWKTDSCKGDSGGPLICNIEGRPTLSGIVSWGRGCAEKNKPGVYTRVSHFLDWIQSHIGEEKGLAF
T7 sequence (P06869 21-178 partner limits assumed): as the sequence (P06869 21-178 partner limits assumed) above
T5 sequence (P06869 180-433 K210A): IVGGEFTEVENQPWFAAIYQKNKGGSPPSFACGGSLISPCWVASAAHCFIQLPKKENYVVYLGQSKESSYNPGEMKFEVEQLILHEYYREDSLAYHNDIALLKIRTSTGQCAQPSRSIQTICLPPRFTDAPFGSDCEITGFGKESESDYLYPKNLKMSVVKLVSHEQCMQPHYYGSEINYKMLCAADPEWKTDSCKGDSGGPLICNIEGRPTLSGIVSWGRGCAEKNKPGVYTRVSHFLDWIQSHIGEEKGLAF
T5 sequence (P06869 21-178 partner limits assumed): as the sequence (P06869 21-178 partner limits assumed) above
T8 sequence (P06869 180-433 S373A): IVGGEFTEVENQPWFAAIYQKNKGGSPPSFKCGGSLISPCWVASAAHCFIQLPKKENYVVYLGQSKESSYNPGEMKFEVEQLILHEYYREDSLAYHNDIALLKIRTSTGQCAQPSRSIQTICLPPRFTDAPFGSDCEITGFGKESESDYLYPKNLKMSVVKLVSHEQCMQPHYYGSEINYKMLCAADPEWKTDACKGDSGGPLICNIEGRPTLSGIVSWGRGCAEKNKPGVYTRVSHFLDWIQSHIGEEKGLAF
T8 sequence (P06869 21-178 partner limits assumed): as the sequence (P06869 21-178 partner limits assumed) above
T6 sequence (P06869 180-433 Y274A): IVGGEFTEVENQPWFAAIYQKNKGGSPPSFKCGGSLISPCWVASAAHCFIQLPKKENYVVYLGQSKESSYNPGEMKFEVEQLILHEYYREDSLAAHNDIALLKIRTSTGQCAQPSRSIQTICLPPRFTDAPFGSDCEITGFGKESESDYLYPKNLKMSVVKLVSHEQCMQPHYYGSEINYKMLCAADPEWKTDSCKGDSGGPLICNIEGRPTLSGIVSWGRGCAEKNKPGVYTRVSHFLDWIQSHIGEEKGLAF
T6 sequence (P06869 21-178 partner limits assumed): as the sequence (P06869 21-178 partner limits assumed) above
T12 sequence (P06869 180-433 limits assumed): as the sequence (P06869 180-433 limits assumed) above
T12 sequence (P06869 21-178 partner limits assumed): as the sequence (P06869 21-178 partner limits assumed) above

As for `CC(=O)N[C@H]1CSSC[C@@H](C(N)=O)NC(=O)[C@H](C)NC(=O)[C@H](CC(C)C)NC(=O)[C@H](Cc2ccc(O)cc2)NC(=O)[C@H](CCCNC(=N)N)NC(=O)[C@H](CO)NC(=O)[C@H](Cc2ccc(O)cc2)NC(=O)[C@H](C)NC(=O)[C@@H]2CCCN2C1=O` [Mupain-1 D9A, CPAYSRYLAC] (Ac-CPAYSRYLAC-NH2; disulfide 1-10), the Ki came to 5.99 ± 0.43 µM at huPA-H99Y [1] (setting [4]); 2.68 ± 0.29 µM at huPA-H99Y R35A; 7.2 ± 1.44 µM on huPA-H99Y V41A; 8.74 ± 0.64 µM on huPA-H99Y K143A; 0.27 ± 0.029 µM at muPA K41A; 27.2 ± 3.3 µM at muPA Y99A. The Ki at muPA K143A was 4.34 ± 0.64 µM; on muPA S190A, 3.02 ± 0.33 µM; on muPA V213T, 0.373 ± 0.055 µM; on muPA wt, 0.89 ± 0.02 µM; at huPA-H99Y Q192A, 4.85 ± 0.32 µM. Also, the “k off, huPA-H99Y” value on huPA-H99Y [2] is 36.6±0.21 (3) s^-1, ×10^2. For the same compound, the “k on, huPA-H99Y” value at huPA-H99Y [2] is on record as 2.60±0.20 (3) M^-1s^-1, ×10^-5. In addition, the Kd is 1.41 ± 0.11 µM at huPA-H99Y [2] (calculated as k off/k on, read-out: K D, huPA-H99Y) and 1.17 ± 0.3 µM at huPA-H99Y [3]. Also, the “k off, muPA” value at muPA is 4.01±0.31 (3) s^−1, ×10^2. The “k on, muPA” value at muPA is given as 0.985±0.169 (3) M^−1s^−1, ×10^−5.

As for `CC(=O)N[C@H]1CSSC[C@@H](C(N)=O)NC(=O)[C@H](CC(=O)O)NC(=O)[C@H](CC(C)C)NC(=O)[C@H](Cc2ccc(O)cc2)NC(=O)[C@H](CCCNC(=N)N)NC(=O)[C@H](CO)NC(=O)[C@H](Cc2ccc(O)cc2)NC(=O)[C@H](C)NC(=O)[C@H](C)NC1=O` [Mupain-1 P2A, CAAYSRYLDC] (Ac-CAAYSRYLDC-NH2; disulfide 1-10), the Ki on huPA-H99Y [1] (setting [4]) is > 1000 µM.

As for `CC(=O)N[C@H]1CSSC[C@@H](C(N)=O)NC(=O)[C@H](CC(=O)O)NC(=O)[C@H](CC(C)C)NC(=O)[C@H](Cc2ccc(O)cc2)NC(=O)[C@H](C)NC(=O)[C@H](CO)NC(=O)[C@H](Cc2ccc(O)cc2)NC(=O)[C@H](C)NC(=O)[C@@H]2CCCN2C1=O` [Mupain-1 R6A, CPAYSAYLDC] (Ac-CPAYSAYLDC-NH2; disulfide 1-10), the Ki at huPA-H99Y [1] was > 1000 µM.

As for `CC(=O)N[C@H]1CSSC[C@@H](C(N)=O)NC(=O)[C@H](CC(=O)O)NC(=O)[C@H](CC(C)C)NC(=O)[C@H](Cc2ccc(O)cc2)NC(=O)[C@H](CCCNC(=N)N)NC(=O)[C@H](C)NC(=O)[C@H](Cc2ccc(O)cc2)NC(=O)[C@H](C)NC(=O)[C@@H]2CCCN2C1=O` [Mupain-1 S5A, CPAYARYLDC] (Ac-CPAYARYLDC-NH2; disulfide 1-10), the Ki at huPA-H99Y [1] (setting [4]) is > 1000 µM.
